Test results from US11602534B2, “Pyrimidine derivative kinase inhibitors” (HEFEI INSTITUTES OF PHYSICAL SCIENCE, CHINESE ACADEMY OF …, priority 2017, dated 2023).

Tests used:
BaF3 = test: Proliferation of BaF3 cells, CCK8 cell viability assay; format: cell-based; details: Mus musculus, 72 hours
How it was run: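 Murine BaF3 lines carry retrovirally transduced human kinase domains fused to an N-terminal TEL fragment (cKIT, PDGFRα or PDGFRβ), and IL-3 is withdrawn so their growth depends on the fused kinase; parental BaF3 serves as the reference line. Living cells were quantified by CCK8 dehydrogenase activity, giving GI50 in μM.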

Tel-cKit/T670I-BaF3 = test: Proliferation of Tel-cKit/T670I-BaF3 cells, CCK8 cell viability assay; format: cell-based; details: Mus musculus, 72 hours, stably expressing cKIT/T670I
How it was run: (§1)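 Mouse BaF3 ± TEL-kinase fusion (human cKIT/PDGFRα/PDGFRβ kinase region, MSCV-Puro retrovirus, IL-3 removed → kinase-addicted). Viability by CCK8 (dehydrogenase), GI50 μM.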

Tel-FLT3-BaF3 = test: Proliferation of Tel-FLT3-BaF3 cells, CCK8 cell viability assay; format: cell-based; details: Mus musculus, 72 hours, stably expressing FLT3 kinase
How it was run: (§2)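 Human kinase-region sequences were PCR-amplified, fused behind N-terminal TEL in MSCV-Puro and stably introduced into mouse BaF3 by retrovirus. IL-3 was then removed to give kinase-dependent lines. Compound effects on these and on parental BaF3 are scored as GI50 (μM) via CCK8 viable-cell quantification.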

TEL-PDGFRα-BaF3 = test: Proliferation of TEL-PDGFRα-BaF3 cells, CCK8 cell viability assay; format: cell-based; details: Mus musculus, 72 hours, stably expressing PDGFRα kinase
How it was run: as §1

TEL-VEGFR2-BaF3 = test: Proliferation of TEL-VEGFR2-BaF3 cells, CCK8 cell viability assay; format: cell-based; details: Mus musculus, 72 hours, stably expressing VEGFR2 kinase
How it was run: as §2

[1] = tested on: human chronic lymphatic leukemia cell strain MEC-1; test: Proliferation of MEC-1 cells, Cell Titer-Glo; format: cell-based; details: MEC1, 72 hours
Description: (§3) In addition, in this example the inhibitory activity of preferred compounds (Compound 5 and Compound 135) was tested against the following cell strains: human acute myeloid leukemia cell strain MV4-11 (expressing FLT3/ITD mutant gene), human acute myeloid leukemia cell strain MOLM-13 (expressing FLT3/ITD mutant gene and wild-type FLT3 gene), human acute myeloid leukemia cell strain MOLM-14 (expressing FLT3/ITD mutant gene and wild-type FLT3 gene), human acute myeloid leukemia cell strain OCI-AML-3 (expressing FLT3 A680V mutant gene), human chronic lymphatic leukemia cell strain MEC-1, Chinese hamster lung (CHL) cells, Chinese hamster ovary (CHO) cells, wherein all the cells were purchased from ATCC. In the example the compounds of the present invention were added respectively into the above cells at different concentrations (0.000508 μM, 0.00152 μM, 0.00457 μM, 0.0137 μM, 0.0411 μM, 0.123 μM, 0.370 μM, 1.11 μM, 3.33 μM, 10 μM in DMSO) and the cells were incubated for 72 hours. The number of viable cells was determined by quantification of ATP in living cells using Cell Titer-Glo® (Promega, the USA) Luminescent Cell Viability Assay kit and thereby GI50 was calculated.

[2] = tested on: human acute myeloid leukemia cell strain MOLM-14; test: Proliferation of MOLM-14 cells, Cell Titer-Glo; format: cell-based; details: for GI50: Homo sapiens, MOLM-14, 72 hours, Cell Titer-Glo, FLT3/ITD and wild-type FLT3, read-out: GI50 MOLM14
Description: as §3

protein kinase FLT3 = test: Phosphorylation of FLT3 in AML cells; format: cell-based, human; details: MV-4-11, MOLM-13 and MOLM-14 cell lines; 4 hours; compounds 0.01-3 μM, PKC412 1 μM
Description: (§4) In cells having FLT3 gene and/or FLT3/ITD mutant gene, specifically, human acute myeloid leukemia cells MV4-11 (expressing FLT3/ITD mutant gene) cell strain and human acute myeloid leukemia cells MOLM-13 and MOLM-14 (expressing FLT3/ITD mutant gene and wild-type FLT3 gene) cell strains, Compound 5, Compound 135 and a FLT3 kinase inhibitor, PKC412 (purchased from Hao Yuan Chemexpress Company, Shanghai), which was used as the control, were evaluated for their effects in cells on phosphorylation of FLT3 and FLT3/ITD protein kinase and phosphorylation of the closely-related STATS protein which is downstream of FLT3 signaling pathways, as well as their effects on phosphorylation of other relevant protein kinases such as ERK and AKT, by assaying a number of cellular biochemical and functional endpoints. In addition, the effects on C-Myc and phosphorylation of the transcription factor NF-κB subunit p65 was also examined (FIGS. 1a-1f). Compound 5 and Compound 135 at different concentrations (0 μM, 0.01 μM, 0.03 μM, 0.1 μM, 0.3 μM, 1 μM, 3 μM in DMSO) and the FLT3 kinase inhibitor PKC412 (1 μM in DMSO) were used to treat acute myeloid leukemia cells MV-4-11, MOLM13 and MOLM-14 that had FLT3 and/or FLT3/ITD gene for 4 hours, respectively, and then the samples were collected. The effects of the compounds on the phosphorylation of proteins such as STATS, C-Myc, ERK, NF-κB p65, AKT in cells were tested (FIGS. 1a-1f).

[3] = Phosphorylation of STATS downstream of FLT3 in AML cells; format: cell-based, human; details: MV-4-11, MOLM13 and MOLM-14; 4 hours; compounds 0.01-3 μM, PKC412 1 μM
Description: as §4

Row | Structure (SMILES) | GI50 (BaF3) [nM] | GI50 (Tel-cKit/T670I-BaF3) [nM] | GI50 (Tel-FLT3-BaF3) [nM] | GI50 (TEL-PDGFRα-BaF3) [nM] | GI50 (TEL-VEGFR2-BaF3) [nM] | GI50 [1] [nM] | GI50 [2] [nM] | phosphorylation of the protein kinase FLT3 (protein kinase FLT3) | phosphorylation of STATS [3] | inhibition of MOLM14 (in words) ([2]; summary of Table 3)
1 | CC(=O)Nc1cc(Oc2ccc(NC(=O)Cc3ccccc3C(F)(F)F)cc2)ncn1 [Example 135, N-[4-(6-acetylamino-pyrimidin-4-yloxy)-phenyl]-2-(2-trifluoromethyl-phenyl)-acetamide] | > 10000 | > 10000 | 249 | 7 | 1440 | > 10000 | 343 | capable of inhibiting phosphorylation | significant inhibition | 
2 | CC(=O)Nc1cc(Oc2ccc(NC(=O)Cc3ccc(F)cc3F)cc2)ncn1 [Example 5, N-[4-(6-acetylamino-pyrimidin-4-yloxy)-phenyl]-2-(2,4-difluoro-phenyl)-acetamide] | > 10000 | > 10000 | 746 | 14 | 357 | > 10000 | 333 | capable of inhibiting phosphorylation | significant inhibition | selectively and strongly inhibited
